In patent publication US11697689B2, “Use of antibody against O-acetylated GD2 ganglioside to improve the therapeutic potential of drugs” (OGD2 PHARMA, priority 2016, dated 2023):
Where two headings read alike, the source gives them in different places.

What was measured:
[1] = tested on: NXS2 cells; assay: MTT cell proliferation assay, drug with or without mAb 8B6; format: cell-based, murine; details: for EC50: Mus musculus, 48 hours
Description: (§1) The antiproliferative activity of the anti-cancer agents was evaluated using the MIT Cell Proliferation Assay Kit (Roche Diagnostic, Indianapolis, USA). The MTT assay is based on the reduction of yellow tetrazolium MIT (3-(4,5-dimethylthiazolyl-2)-2,5-diphenyltetrazolium bromide) by metabolically active cells forming purple formazan crystals. The purple formazan is solubilized with detergent and quantified spectrophotometrically at 570 nm.
(§2) Cells in the log phase of growth were seeded into 96-well (5×10^3 for LAN-1 and NXS2 cells; 1×10^4 for IMR5 and LAN-5 cells) treated plates in 100 μl of complete media. The cells were allowed to attach during an overnight incubation prior to treating with test agents. […] Equivalent culture media volume was added to control wells. Three conditions were used: anti-cancer agent alone, mAb 8B6 alone, mAb 8B6+anti-cancer agent. Cells were exposed to test agents for 48 hours. Following the exposure to test agents, 15 μl of MIT reagent was added to each well. The plates were returned to the incubator for four hours. Following the incubation period, kit supplied detergent reagent (100 μl) was added to all wells. The plates were wrapped in plastic wrap to prevent evaporation and allowed to sit at room temperature in the dark overnight. The absorbance at 570 nm was measured the following day using a iMark™ Microplate Absorbance Reader plate reader (Bio-Rad). Assays were performed in quadruplicate and experiments were repeated three times. […] The median-effect equation used by CompuSyn® software derived from the mass-action law principle at equilibrium steady state. […] Percent of Control values were calculated by dividing the absorbance values for each test well by the No Drug Control average and multiplying by 100.
(§3) Combination data was analyzed using CompuSyn® software to calculate Combination Index values to assess synergy. […] The dosage, fraction affected and molar ratio of compounds tested in combination were entered into the CompuSyn® software for evaluation of the presence/absence of synergy. CompuSyn® assigns a Combination Index value which rates the level of compounds' inhibiting 50% of the cell proliferation. […] See Chou, PHARMACOL.
(§4) NXS2 cells were grown in DMEM 4.5 g/L de glucose with 10% heat-inactivated fetal calf serum, 2 mM L-Glutamine, 100 units/ml penicillin, and 100 μg/ml streptomycin, at 37° C. in 5% CO2.

[2] = tested on: IMR5 cells; assay: as above; format: cell-based, human; details: for EC50: Homo sapiens, 48 hours
Description: as §1, §2, §3, §4

[3] = tested on: LAN-1 cells; assay: as above; format: cell-based, human; details: for EC50: Homo sapiens, 48 hours
Description: as §1, §2, §3, §4

[4] = tested on: LAN-5 cells; assay: as above; format: cell-based, human; details: for EC50: Homo sapiens, 48 hours
Description: Equivalent culture media volume was added to control wells. […] Cells were exposed to test agents for 48 hours.

[5] = tested on: NXS2 neuroblastoma experimental liver metastasis; assay: Murine NXS2 neuroblastoma experimental liver metastasis model; format: in vivo, A/J mice; details: day 28 after NXS2 inoculation; mAb 8B6 150 μg cumulative i.v.; isotretinoin 10 mg/kg per os; topotecan 0.36 mg/kg i.p.; doxorubicin 1 mg/kg i.p.; vehicle 2.5±0.18 g; mean±SEM
Description: Mice (n=10/group) were inoculated with 2.5×10^5 NXS2 mouse neuroblastoma cells by i.v. injections. 8B6 mAb treatment was started on day 3 after tumor cell inoculation twice a week for 3 consecutive weeks (cumulative dose=150 μg, A-C). All chemotherapeutic treatments were started at day 10 post-tumor inoculation. Panel A: isotretinoin was given at 10 mg/kg, per os, five times weekly for 2 weeks. […] Panel C: doxorubicin was given by i.p. injections at 1 mg/kg five times weekly for 2 weeks. Mice were euthanized 28 days post-tumor inoculation. Anti-tumor efficacy was evaluated by determining the liver weight on the fresh specimen compared to the mice treated with vehicle only. The liver weight is indicative of hepatic metastasis number. The y-axis starts at 0.8 g corresponding to the average normal liver weight. Data are presented as the mean±SEM.
We inoculated 2.5×10^5 tumor cells by tail vein in PBS. […] Anti-OAcGD2 mAb 8B6 treatment was started at Day 3 after tumor cells injection. Mice received by i.v. injection twice a week 25 μg mAb 8B6 for 3 consecutive weeks; (day 3, 7, 10, 14, 17 and 21; total dose=150 μg). Isotretinoin was given orally diluted in Ora-Plus© at 10 mg/kg daily for 2 consecutive weeks (on days 10-14 and 17-21). […] Doxorubicin was given by i.p. injection at 1 mg/kg daily for two weeks (on days 10-14 and 17-21). Mice were sacrificed after 28 days post inoculation, and anti-tumor efficacy was evaluated by liver weight of the fresh specimen as well as hepatic metastasis number. • 6.2—Results
Anti-cancer agents were given at low doses as previously reported in the literature in order to minimize related side effects. Three days after i.v. NSX2 tumor cell inoculation, ten mice were assigned to treatment with single agent, or combination of mAb 8B6 and anti-cancer agents as described previously. On day 28 after tumor cell inoculation, we determined the number of liver metastases and the liver weight after mice euthanasia.

[6] = Systemic tolerability, body weight over the treatment period; format: in vivo, A/J mice; details: same groups and doses as the NXS2 liver metastasis study
Excerpt: Mean weight of group of mice (n=10) presented in FIG. 6 at day 0 was defined as 100% weight. Weight in each group remained stable for the period of treatment. Δ, mice treated with mAb 8B6; ◯, mice treated with anti-cancer agent; □, mice treated with chemotherapeutic drug plus mAb 8B6.
Weight loss is used as a sensitive marker for health monitoring. We therefore performed a parallel analysis of the body weight over the treatment period. […] The body-weight difference between the two groups treated with doxorubicin compared to the non-doxorubicin group, however, fails to be significant during the treatment period (p>0.05).

[7] = tested on: NXS2 cells; assay: OAcGD2 expression (mAb 8B6 binding) after drug exposure, flow cytometry; details: isotretinoin 75, topotecan 0.5, doxorubicin 3 μM (Table 1), mean ± SD
[8] = tested on: IMR5 cells; assay: as above; details: isotretinoin 40, topotecan 1, doxorubicin 7 μM (Table 1), mean ± SD, n = 3, untreated 14.6 ± 0.4
[9] = tested on: LAN-1 cells; assay: as above; details: isotretinoin 40, topotecan 5, doxorubicin 3 μM (Table 1), mean ± SD, n = 3, untreated 12.1 ± 0.1
[10] = tested on: LAN-5 cells; assay: as above; details: isotretinoin 8, topotecan 1, doxorubicin 5 μM (Table 1), mean ± SD, n = 3, untreated 13.2 ± 0.7
[11] = tested on: LAN-1 cells; assay: Incorporation of anti-cancer agents in cells, flow cytometry; format: cell-based, human; details: 5-FU and cisplatin 1.52 μM, doxorubicin […], mAb 8B6 40 μg/ml, 30 minutes at 37° C.
Description: FIG. 3: Internalization of 5-FU, Cisplatin and doxorubicin in neuroblastoma cells. LAN-1 cells were treated with 5-FU (1.52 μM)—Panel A, or Cisplatin (1.52 μM)—Panel B, or doxorubicin (4.7 μM)—Panels C and D with combinations of isotype-matched negative control mouse IgG3 (40 μg/ml) or anti-OAcGD2 mAb 8B6, anti-OAcGD2 mAb c8B6.14b, anti-OAcGD2 mAb c8B6.15b (40 μg/ml). Anti-cancer agents and mAb were incubated during 30 minutes at 37° C. Neuroblastoma cells were fixed with PFA 4% before FACS acquisition. Positive control was performed by treatment of fixed LAN-1 cells with saponin 0.05% in combination with anti-cancer agents during 30 minutes. Incorporation of anti-cancer agents in tumor cells was assessed by flow cytometry (excitation with a 535 nm laser) and results are expressed in percentage of cells having incorporated anti-cancer agent in total cell population.
Combinations of anti-OAcGD2 mAb 8B6 with other anti-cancer agents were also assayed on LAN-1 neuroblastoma cell line. In this experiment, incorporation of 5-FU, Cisplatin and doxorubicin within the cells in the presence of mAb 8B6 or CTRL-(IgG) was detected using flow cytometry (excitation with a 535 nm laser). Anti-cancer agents and mAb were incubated during 30 minutes at 37° C.

[12] = tested on: AMBMa glioblastoma primary cells; assay: MTT assay, temozolomide with or without mAb 8B6; format: cell-based; details: Homo sapiens, temozolomide alone, 72 hours
Description: (§5) Tumor specimens were collected from patients with a histologic diagnosis of GBM. Tumors were harvested at the time of surgical resection and immediately put into culture after dissociation of the tumors using the gentleMACs™ Dissociator (Miltenyi) according to the manufacturer's instructions.
(§6) Equivalent culture media volume was added to control wells. […] Cells were exposed to test agents for 72 hours. Following the exposure to test agents, 15 μl of MTT reagent was added to each well.
(§7) Cell viability was measured using the MTT assay and half maximal effective concentration (EC50) was calculated as previously disclosed.

[13] = tested on: DUASOII glioblastoma primary cells; assay: MTT assay, temozolomide with or without mAb 8B6; format: cell-based; details: Homo sapiens, temozolomide alone, 72 hours
Description: as §5, §6, §7

[14] = tested on: DUGAn glioblastoma primary cells; assay: MTT assay, temozolomide with or without mAb 8B6; format: cell-based; details: Homo sapiens, temozolomide alone, 72 hours
Description: as §5, §6, §7

[15] = tested on: GLIO 5 glioblastoma primary cells; assay: MTT assay, temozolomide with or without mAb 8B6; format: cell-based; details: Homo sapiens, temozolomide alone, 72 hours
Description: as §5, §6, §7

[16] = tested on: GUITh glioblastoma primary cells; assay: MTT assay, temozolomide with or without mAb 8B6; format: cell-based; details: Homo sapiens, temozolomide alone, 72 hours
Description: as §5, §6, §7

[17] = tested on: HARCI glioblastoma primary cells; assay: MTT assay, temozolomide with or without mAb 8B6; format: cell-based; details: Homo sapiens; HARCl; temozolomide alone; 72 hours
Description: as §5, §6, §7

[18] = tested on: neuroblastoma cell lines NXS2, IMR5, LAN-1 and LAN-5; details: NXS2, IMR5, LAN-1, LAN-5
Description: as §1
Cells in the log phase of growth were seeded into 96-well (5×10^3 for LAN-1 and NXS2 cells; 1×10^4 for IMR5 and LAN-5 cells) treated plates in 100 μl of complete media. The cells were allowed to attach during an overnight incubation prior to treating with test agents. […] Equivalent culture media volume was added to control wells. Three conditions were used: anti-cancer agent alone, mAb 8B6 alone, mAb 8B6+anti-cancer agent. Cells were exposed to test agents for 48 hours. Following the exposure to test agents, 15 μl of MIT reagent was added to each well. […] The absorbance at 570 nm was measured the following day using a iMark™ Microplate Absorbance Reader plate reader (Bio-Rad). […] Percent of Control values were calculated by dividing the absorbance values for each test well by the No Drug Control average and multiplying by 100.
Combination data was analyzed using CompuSyn® software to calculate Combination Index values to assess synergy. […]

[19] = with mAb 8B6 40 μg/ml, read-out: EC50 with mAb 8B6
[20] = IMR-5, drug alone, read-out: EC50
[21] = IMR-5, with mAb 8B6 40 μg/ml, read-out: EC50 with mAb 8B6
[22] = LAN1, drug alone, read-out: EC50
[23] = LAN1, with mAb 8B6 40 μg/ml, read-out: EC50 with mAb 8B6
[24] = LA-N-5, drug alone, read-out: EC50
[25] = LA-N-5, with mAb 8B6 40 μg/ml, read-out: EC50 with mAb 8B6

SMILES: CC1=C(/C=C/C(C)=C/C=C/C(C)=C\C(=O)O)C(C)(C)CCC1 [Isotretinoin, isotretinoin]
- EC50 ([1]; drug alone, read-out: EC50): 75.7 µM
- EC50 [1, 19]: 59.3 µM
- EC50 [2, 20]: 32.9 µM
- EC50 [2, 21]: 24 µM
- EC50 [3, 22]: 7.4 µM
- EC50 [3, 23]: 4.3 µM
- EC50 [4, 24]: 37.2 µM
- EC50 [4, 25]: 31.3 µM
- mean liver weight [5]: 2.0 ± 0.24 g
- body weight over the treatment period [6]: no loss of body weight
- Expression level of OAcGD2 (MFI ratio mAb 8B6 / mAb 7H2) after 48 hours exposure ([7]; n = 3, untreated 7.3 ± 0.9): 7.5 ± 1.1
- Expression level of OAcGD2 (MFI ratio mAb 8B6 / mAb 7H2) after 48 hours exposure ([7]; n = 3, untreated 7.3 ± 0.9, listed as isotretinoin): remained unchanged
- Expression level of OAcGD2 (MFI ratio mAb 8B6 / mAb 7H2) after 48 hours exposure [8]: 19.2 ± 0.8
- Expression level of OAcGD2 (MFI ratio mAb 8B6 / mAb 7H2) after 48 hours exposure [9]: 12.0 ± 0.1
- Expression level of OAcGD2 (MFI ratio mAb 8B6 / mAb 7H2) after 48 hours exposure [10]: 16.8 ± 0.7

SMILES: O=c1[nH]cc(F)c(=O)[nH]1 [5-FU, 5-Fluorouracil]
- cells positive for the anti-cancer agent when incubated with mAb 8B6 versus agent alone and CTRL-(IgG) [11]: more cells were positive

SMILES: N.N.[Cl][Pt][Cl] [cisplatin]
- cells positive for the anti-cancer agent when incubated with mAb 8B6 versus agent alone and CTRL-(IgG) [11]: more cells were positive

SMILES: Cn1nnc2c(C(N)=O)ncn2c1=O [temozolomide]
- EC50 [12]: 784 µM
- EC50 [13]: 584 µM
- EC50 [14]: 1120 µM
- EC50 [15]: 1590 µM
- EC50 [16]: 3160 µM
- EC50 [17]: 13100 µM

SMILES: COc1cccc2c1C(=O)c1c(O)c3c(c(O)c1C2=O)C[C@@](O)(C(=O)CO)C[C@@H]3O[C@H]1C[C@H](N)[C@H](O)[C@H](C)O1 [Doxorubicin, doxorubicin]
- Combination index 50 Values ([1]; CompuSyn, below 1 = synergy): 0.30
- EC50 ([1]; drug alone, read-out: EC50): 2.75 µM
- EC50 [1, 19]: 0.016 µM
- Combination index 50 Values ([2]; CompuSyn, below 1 = synergy): 0.10
- EC50 [2, 20]: 6.3 µM
- EC50 [2, 21]: 0.01 µM
- Combination index 50 Values ([3]; CompuSyn, below 1 = synergy): 0.05
- EC50 [3, 22]: 4.67 µM
- EC50 [3, 23]: 0.014 µM
- Combination index 50 Values ([4]; CompuSyn, below 1 = synergy): 0.16
- EC50 [4, 24]: 2.09 µM
- EC50 [4, 25]: 0.13 µM
- median combination index values across the tested neuroblastoma cell lines [18]: ≤ 0.30
- cells positive for the anti-cancer agent when incubated with mAb 8B6 versus agent alone and CTRL-(IgG) [11]: more cells were positive
- mean liver weight [5]: 1.75 ± 0.09 g
- body weight over the treatment period [6]: a loss of body weight after day 17
- Expression level of OAcGD2 (MFI ratio mAb 8B6 / mAb 7H2) after 48 hours exposure ([7]; n = 3, untreated 7.3 ± 0.9): 6.48 ± 2.28
- Expression level of OAcGD2 (MFI ratio mAb 8B6 / mAb 7H2) after 48 hours exposure ([7]; n = 3, untreated 7.3 ± 0.9, listed as doxorubicin): remained unchanged
- Expression level of OAcGD2 (MFI ratio mAb 8B6 / mAb 7H2) after 48 hours exposure [8]: 15.24 ± 0.21
- Expression level of OAcGD2 (MFI ratio mAb 8B6 / mAb 7H2) after 48 hours exposure [9]: 13.76 ± 1.8
- Expression level of OAcGD2 (MFI ratio mAb 8B6 / mAb 7H2) after 48 hours exposure [10]: 14.36 ± 1.4

SMILES: CC[C@@]1(O)C(=O)OCc2c1cc1n(c2=O)Cc2cc3c(CN(C)C)c(O)ccc3nc2-1 [Topotecan, topotecan]
- EC50 ([1]; drug alone, read-out: EC50): 0.45 µM
- EC50 [1, 19]: 0.15 µM
- EC50 [2, 20]: 0.011 µM
- EC50 [2, 21]: 0.007 µM
- EC50 [3, 22]: 0.771 µM
- EC50 [3, 23]: 0.015 µM
- EC50 [4, 24]: 12.4 µM
- EC50 [4, 25]: 0.004 µM
- mean liver weight [5]: 1.22 ± 0.09 g
- body weight over the treatment period [6]: no loss of body weight
